# Measurements from the supplement of paper PMC6045584.
# ± gives the standard deviation of the averaged measurements.
# Assays:
# TEMOZOLOMIDE = compound: Cn1nnc2c(C(N)=O)ncn2c1=O [TEMOZOLOMIDE]; assay: surviving fraction relative to DMSO-only wells; higher = less growth inhibition; conditions: exposure time: 5 days
# Summary of the method: (§1)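 Surviving fraction is CellTiter-Glo luminescence divided by the median of wells given DMSO only. For this, log-phase tumour cell lines went into 384-well plates at 250–500 cells per well and, 24 hours later, into five days of continuous inhibitor exposure at 0.5, 1, 5, 10, 50, 100, 500 and 1000 nM. Lines were screened three times and retained only if replicate Pearson r >0.7 and median Z' >0.3.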
# MLN-4924 = compound: NS(=O)(=O)OC[C@@H]1C[C@@H](n2ccc3c(N[C@H]4CCc5ccccc54)ncnc32)C[C@@H]1O [MLN-4924]; assay: as above; conditions: exposure time: 5 days
# Summary of the method: as §1
Test System,surviving fraction (TEMOZOLOMIDE; 0.5 nM),surviving fraction (TEMOZOLOMIDE; 1 nM),surviving fraction (TEMOZOLOMIDE; 5 nM),surviving fraction (TEMOZOLOMIDE; 10 nM),surviving fraction (TEMOZOLOMIDE; 50 nM),surviving fraction (TEMOZOLOMIDE; 100 nM),surviving fraction (TEMOZOLOMIDE; 500 nM),surviving fraction (TEMOZOLOMIDE; 1000 nM),surviving fraction (MLN-4924; 0.5 nM),surviving fraction (MLN-4924; 1 nM),surviving fraction (MLN-4924; 5 nM),surviving fraction (MLN-4924; 10 nM),surviving fraction (MLN-4924; 50 nM),surviving fraction (MLN-4924; 100 nM),surviving fraction (MLN-4924; 500 nM),surviving fraction (MLN-4924; 1000 nM)
CHLA90 AUTONOMIC GANGLIA,0.928 ± 0.039,0.975 ± 0.047,0.941 ± 0.053,0.96 ± 0.023,0.963 ± 0.068,1.03 ± 0.055,1.02 ± 0.087,1.03 ± 0.098,1.006 ± 0.0078,0.969 ± 0.05,0.984 ± 0.062,1.03 ± 0.019,1.2 ± 0.065,0.993 ± 0.028,0.697 ± 0.13,0.525 ± 0.041
HCC1954 BREAST,1.11 ± 0.19,0.956 ± 0.25,1.198 ± 0.0064,1.2 ± 0.082,1.16 ± 0.12,0.989 ± 0.13,1.04 ± 0.24,0.976 ± 0.023,1.12 ± 0.082,1.13 ± 0.045,1.09 ± 0.049,1.17 ± 0.3,0.656 ± 0.075,0.518 ± 0.021,0.1795 ± 0.0014,0.112 ± 0.016
SUM149.B1*.S BREAST,1 ± 0.026,1.05 ± 0.023,1.08 ± 0.062,1.11 ± 0.038,1.07 ± 0.067,1.13 ± 0.073,1.07 ± 0.023,1.15 ± 0.085,1.13 ± 0.076,1.09 ± 0.063,1.09 ± 0.021,1.08 ± 0.031,1.002 ± 0.0051,0.675 ± 0.057,0.107 ± 0.0071,0.0892 ± 0.0075
T47D BREAST,0.982 ± 0.011,1.057 ± 0.0064,1.04 ± 0.034,1.04 ± 0.055,1.06 ± 0.053,1.1 ± 0.018,1.08 ± 0.032,1.09 ± 0.025,1.04 ± 0.012,1.02 ± 0.021,0.916 ± 0.036,0.835 ± 0.037,0.67 ± 0.023,0.694 ± 0.011,0.279 ± 0.019,0.27 ± 0.028
SUM159 BREAST,1.01 ± 0.057,1.06 ± 0.035,1.039 ± 0.0092,1.07 ± 0.024,1.02 ± 0.021,1.05 ± 0.021,1.04 ± 0.029,1.06 ± 0.0095,1.11 ± 0.039,1.07 ± 0.043,1.08 ± 0.023,1.07 ± 0.017,1.05 ± 0.018,1.01 ± 0.012,0.75 ± 0.022,0.433 ± 0.02
CADOES1 SOFT TISSUE,0.965 ± 0.14,0.979 ± 0.071,0.907 ± 0.07,0.877 ± 0.032,0.956 ± 0.068,0.937 ± 0.04,0.968 ± 0.096,0.969 ± 0.12,0.993 ± 0.094,0.97 ± 0.047,0.913 ± 0.052,0.787 ± 0.057,0.879 ± 0.057,0.812 ± 0.082,0.0993 ± 0.014,0.053 ± 0.007
SG32 HEADNECK,1.14 ± 0.019,1.44 ± 0.39,1.19 ± 0.12,1.37 ± 0.22,1.26 ± 0.071,1.13 ± 0.097,1.2 ± 0.18,1.67 ± 0.62,1.17 ± 0.11,1.05 ± 0.14,1.36 ± 0.08,1.28 ± 0.16,1.04 ± 0.044,0.797 ± 0.051,0.277 ± 0.023,0.186 ± 0.018
BT20 BREAST,1.05 ± 0.097,1.07 ± 0.15,1.04 ± 0.085,1.13 ± 0.11,1.01 ± 0.053,1.08 ± 0.081,1.03 ± 0.053,1.15 ± 0.052,1.13 ± 0.042,1.168 ± 0.0072,1.13 ± 0.073,1.16 ± 0.1,1.2 ± 0.084,1.23 ± 0.18,0.989 ± 0.098,0.645 ± 0.044
OSHN BONE,1.05 ± 0.014,1.08 ± 0.018,1.06 ± 0.018,1.13 ± 0.035,1.07 ± 0.016,1.1 ± 0.028,1.081 ± 0.0068,1.1 ± 0.018,1.09 ± 0.016,1.079 ± 0.01,1.15 ± 0.026,1.087 ± 0.0023,0.733 ± 0.018,0.565 ± 0.045,0.274 ± 0.028,0.258 ± 0.054
C33A CERVIX,0.944 ± 0.13,0.901 ± 0.11,1.02 ± 0.056,0.929 ± 0.088,0.944 ± 0.047,1.05 ± 0.061,0.924 ± 0.012,0.984 ± 0.068,0.905 ± 0.042,0.916 ± 0.093,0.929 ± 0.13,0.952 ± 0.11,0.542 ± 0.032,0.358 ± 0.027,0.132 ± 0.026,0.0803 ± 0.028
SKBR3 BREAST,1.1 ± 0.052,1.11 ± 0.058,1.06 ± 0.082,1.06 ± 0.069,0.983 ± 0.061,1.07 ± 0.13,1.13 ± 0.04,1.07 ± 0.055,1.01 ± 0.067,1.06 ± 0.12,1.11 ± 0.083,1.01 ± 0.062,0.187 ± 0.015,0.14 ± 0.01,0.159 ± 0.017,0.175 ± 0.011
22RV1 PROSTATE,0.993 ± 0.017,1.09 ± 0.05,1.03 ± 0.029,1.08 ± 0.015,1.04 ± 0.057,1.13 ± 0.096,1.11 ± 0.048,1.09 ± 0.069,1.07 ± 0.05,0.967 ± 0.15,1.03 ± 0.12,0.81 ± 0.1,0.653 ± 0.048,0.47 ± 0.055,0.283 ± 0.058,0.26 ± 0.13
LNCAP PROSTATE,0.966 ± 0.088,0.915 ± 0.073,0.985 ± 0.17,0.8907 ± 0.0074,0.93 ± 0.034,0.963 ± 0.092,0.897 ± 0.037,0.924 ± 0.083,0.939 ± 0.1,1 ± 0.021,0.803 ± 0.092,0.496 ± 0.051,0.085 ± 0.014,0.026 ± 0.001,0.0227 ± 0.0011,0.024
CASKI CERVIX,0.888 ± 0.013,0.88 ± 0.049,0.965 ± 0.044,1.01 ± 0.12,1 ± 0.023,1.04 ± 0.05,0.929 ± 0.072,1 ± 0.074,0.955 ± 0.033,0.961 ± 0.028,1.04 ± 0.084,1.03 ± 0.082,0.507 ± 0.017,0.301 ± 0.016,0.168 ± 0.013,0.153 ± 0.0032
HU09 BONE,0.817 ± 0.057,1.01 ± 0.042,1.08 ± 0.11,1.1 ± 0.014,0.964 ± 0.14,1.12 ± 0.051,0.966 ± 0.11,0.961 ± 0.076,0.948 ± 0.097,0.931 ± 0.076,1.04 ± 0.03,1.15 ± 0.048,1.01 ± 0.096,0.707 ± 0.052,0.296 ± 0.0049,0.26 ± 0.018
MDAMB157 BREAST,1.02 ± 0.067,0.986 ± 0.046,0.968 ± 0.09,1.1 ± 0.074,0.953 ± 0.06,1.11 ± 0.028,0.927 ± 0.055,0.954 ± 0.1,1 ± 0.019,0.966 ± 0.087,0.968 ± 0.07,0.931 ± 0.041,0.906 ± 0.09,0.743 ± 0.054,0.379 ± 0.043,0.267 ± 0.022
HCC78 LUNG,0.804 ± 0.046,0.791 ± 0.14,0.941 ± 0.062,1.02 ± 0.069,0.984 ± 0.11,0.916 ± 0.14,0.907 ± 0.058,0.785 ± 0.18,0.845 ± 0.11,0.588 ± 0.064,0.722 ± 0.17,0.808 ± 0.15,0.487 ± 0.067,0.27 ± 0.1,0.0393 ± 0.011,0.0343 ± 0.0078
HCC1395 BREAST,1.03 ± 0.034,1.1 ± 0.081,1.1 ± 0.11,1.02 ± 0.078,1.04 ± 0.044,1.01 ± 0.14,0.922 ± 0.14,1.06 ± 0.03,1.07 ± 0.042,1.13 ± 0.05,1.01 ± 0.14,1.15 ± 0.14,1.1 ± 0.014,1.083 ± 0.008,0.989 ± 0.1,1.01 ± 0.053
RDES SOFT TISSUE,1.11 ± 0.033,1.2 ± 0.06,1.14 ± 0.088,1.02 ± 0.12,1.15 ± 0.13,1.3 ± 0.14,1.27 ± 0.15,1.34 ± 0.17,1.24 ± 0.12,1.11 ± 0.22,1.29 ± 0.17,1.26 ± 0.081,0.952 ± 0.018,0.687 ± 0.067,0.0467 ± 0.0025,0.0413 ± 0.0021
MDAMB231 BREAST,0.9454 ± 0.0069,0.992 ± 0.024,0.9815 ± 0.008,1.01 ± 0.016,0.986 ± 0.013,0.998 ± 0.023,0.975 ± 0.015,0.985 ± 0.025,0.9815 ± 0.006,0.978 ± 0.026,0.971 ± 0.025,0.933 ± 0.024,0.676 ± 0.0082,0.62 ± 0.035,0.243 ± 0.0094,0.175 ± 0.0081
